For data set [1], the system named is K. pneumoniae 4640. To be noted: K. pneumoniae 4640; Week 1 (12/6/2023).
Data set [2] deals with A. baumannii 5075. To be noted: Week 1 (12/6/2023).
On the set-up of data set [3]: method as in Biomatik (vendor). To be noted: 1.0 mg peptide in 1.0 ml solvent; peptides synthesized by Biomatik; ref Biomatik (vendor); cited from earlier work.
The subject of data set [4] is Batrachochytrium dendrobatidis Bd-GPL strain JEL404. To be noted: slope of growth, positive = inhibition, negative = no inhibition. The method, then: Bd-peptide challenge assays were conducted with the crude peptides extracted from the salamander skin secretions and with the 20 synthesized peptides. We followed methods by Pereria et al.[49] to conduct assays with the crude peptides using Bd-GPL strain JEL404 at 1 × 10^6 zoospores/mL. Briefly, skin peptide samples were pooled together based on species-site-injection (Table 1). Skin peptides samples were serially diluted 2-fold in MilliQ (Ultrapure Type 1) water and assayed at a concentration of 2.35–75 μg/mL based on starting peptide concentration available. For synthesized peptides, we conducted assays from 15.6 to 500 μg/ml. In both assays, we quantified percent inhibition of each well using slope of growth[90] in which positive values indicate inhibition and negative values indicate no inhibition.

Data set [5] deals with P. aeruginosa PA01 (Si). The experiment in a line: microbe, parasite or virus in culture. It counts as cell-based. To be noted: P. aeruginosa PA01 (Si), not typical ESKAPEE strain; Week 1 (12/6/2023). An excerpt:
Supplement 41522_2025_837_MOESM13_ESM.xlsx, sheet "Table_S13_ESKAPEE-MIC" | column: Bacterial MIC (µg/mL)

Data set [6] concerns K. pneumoniae ATCC 700603. The experiment in a line: microbe, parasite or virus in culture. To be noted: K. pneumoniae 700603; Week 1 (12/6/2023). The method, then: (§1) Antimicrobial susceptibility testing of the 20 synthesized peptides against 17 bacterial strains of clinical relevance in the ESKAPEE panel was conducted using minimum inhibitory concentration (MIC) assays following the broth microdilution method outlined by Parker et al.[91]. The ESKAPEE panel is comprised of fourteen American Type Culture Collection (ATCC) strains and three Multidrug Resistant Organism Repository and Surveillance Network (MRSN) bacterial strains. These strains represent at least one drug-susceptible strain and one drug-resistant strain for each bacterium to assess drug efficacy across various resistance mechanisms. This panel is comprised of the following bacterial species and strains: E. faecium (ATCC 19434, ATCC 49224), S. aureus (ATCC 25923, ATCC 43300), K. pneumoniae (ATCC 700603, ATCC 13883, MRSN 1320), A. baumannii (ATCC 17978, ATCC 19606, MRSN 959), P. aeruginosa (ATCC 15692, ATCC 27853, MRSN 5519), E. cloacae (ATCC 13047, ATCC 35549), and E. coli (ATCC 35218, ATCC 43888). Bacteria were grown in cation-adjusted Mueller-Hinton broth (CAMHB) to achieve a final inoculum of 1 × 10⁵ CFU/mL. CAMHB is selected for its batch-to-batch reproducibility, low levels of antimicrobial inhibitors, and ability to support the growth of most bacterial pathogens.
(§2) Briefly, lyophilized peptides were dissolved in 0.2% TFA + 0.4% BSA in water to 2.56 mg/mL, ultrasonicated for 20 min, diluted 10-fold into CAMHB, and then serially diluted 2-fold in 0.02% TFA + 0.04% BSA in CAMHB and assayed at a concentration of 0.25 to 128 μg/mL. Assays were set up using the Tecan Freedom EVO liquid handling robot and software (Tecan, Switzerland) with 50 μL of bacterial inoculum and 50 μL of peptide transferred into round-bottom 96-well microtiter plates. Each plate assay was performed in duplicate and incubated at 37 °C for 20 h without agitation. Bacterial growth was assessed using the BIOMIC V3 Image Analysis system (Giles Scientific, USA) and the MIC values were determined visually according to the Clinical and Laboratory Standards Institute (CLSI) guidelines.

For data set [7], the system named is E. faecium ATCC 19434. Kind of data set: microbe, parasite or virus in culture. To be noted: E. faecium 19434; Week 1 (12/6/2023). The method, then:
as §1, §2

For data set [8], the system named is E. cloacae ATCC 13047. Kind of data set: microbe, parasite or virus in culture. To be noted: E. cloacae 13047; Week 1 (12/6/2023). The method, then:
as §1, §2

Data set [9] relates to E. coli ATCC 35218. The experiment in a line: microbe, parasite or virus in culture. To be noted: E. coli 35218; Week 1 (12/6/2023). The method, then:
as §1, §2

The test system of data set [10] is E. cloacae ATCC 35549. Kind of data set: microbe, parasite or virus in culture. To be noted: E. cloacae 35549; Week 1 (12/6/2023). The method, then: as §1, §2
The test system of data set [11] is A. baumannii ATCC 19606. The experiment in a line: microbe, parasite or virus in culture. To be noted: A. baumannii 19606; Week 1 (12/6/2023). The method, then:
as §1, §2

For data set [12], the system named is E. faecium ATCC 49224. The experiment in a line: microbe, parasite or virus in culture. To be noted: E. faecium 49224; Week 1 (12/6/2023). The method, then:
as §1, §2

The test system of data set [13] is K. pneumoniae ATCC 13883. Kind of data set: microbe, parasite or virus in culture. To be noted: K. pneumoniae 13883; Week 1 (12/6/2023). The method, then: as §1, §2
In data set [14] the test system is P. aeruginosa MRSN 5519. Kind of data set: microbe, parasite or virus in culture. To be noted: P. aeruginosa 5519; Week 1 (12/6/2023). The method, then: as §1, §2
Data set [15] concerns P. aeruginosa ATCC 27853. The experiment in a line: microbe, parasite or virus in culture. To be noted: P. aeruginosa 27853; Week 1 (12/6/2023). The method, then:
as §1, §2

Data set [16] deals with A. baumannii ATCC 17978. The experiment in a line: microbe, parasite or virus in culture. To be noted: A. baumannii 17978; Week 1 (12/6/2023). The method, then:
as §1, §2

Data set [17] deals with S. aureus ATCC 25923. The experiment in a line: microbe, parasite or virus in culture. To be noted: S. aureus 25923; Week 1 (12/6/2023). The method, then:
as §1, §2

Data set [18] concerns S. aureus ATCC 43300. Kind of data set: microbe, parasite or virus in culture. To be noted: S. aureus 43300; Week 1 (12/6/2023). The method, then:
as §1, §2

Data set [19] deals with E. coli ATCC 43888. The experiment in a line: microbe, parasite or virus in culture. To be noted: E. coli 43888; Week 1 (12/6/2023). The method, then: as §1, §2
Where [20] appears, read: synthesized peptide 15.625 μg/mL.
The mark [21] stands for this setting: synthesized peptide 31.25 μg/mL.

The values below come from article PMC12635268, “Novel antimicrobial peptides and peptide-microbiome crosstalk in Appalachian salamander skin” (NPJ Biofilms and Microbiomes, 2025).

Read-outs that look alike come from different tables or passages of the source. Ends that are not written are not given here. Some results are limits rather than exact numbers.

Take KGPRPPGFSPFR [PrMb-Eb7]: the “Bacterial MIC” value in data set [1], in data set [2], in [5], in [6], in data set [7] and in data set [8] was above 128.000 µg/mL each time. Besides, the “Bacterial MIC” value in [9], in [10], in data set [11], in [12], in data set [13] and in data set [14] was above 128.000 µg/mL each time. Moreover, the “Bacterial MIC” value in data set [15], in [16], in data set [17], in data set [18] and in [19] was above 128.000 µg/mL throughout. In addition, the “Suggest solvent (solubility)” value in data set [3] was 1.0mg peptide soluble in 1.0ml H2O. The “Bd inhibition score (percent inhibition), mean” value in data set [4] (setting [20]) was -125.322%; in data set [4] (setting [21]), -116.924%; in [4] (synthesized peptide 62.5 μg/mL) it was -107.962%; in data set [4] (synthesized peptide 125 μg/mL), -145.651%; in [4] (synthesized peptide 250 μg/mL) it was -143.314%; in data set [4] (synthesized peptide 500 μg/mL) it was -136.81%.

With NRKGPRPPGFSPFR [PrAd-Eb9], the “Bacterial MIC” value in data set [1], in data set [2], in [5], in data set [6], in data set [7] and in [8] was above 128.000 µg/mL throughout. In addition, the “Bacterial MIC” value in [9], in data set [10], in [11], in data set [12], in [13] and in [14] was above 128.000 µg/mL throughout. The “Bacterial MIC” value in data set [15], in data set [16], in data set [17], in data set [18] and in data set [19] was above 128.000 µg/mL each time. In addition, in data set [3], the “Suggest solvent (solubility)” value is 1.0mg peptide soluble in 1.0ml H2O. Further, the “Bd inhibition score (percent inhibition), mean” value in [4] (setting [20]) was -120.796%; in data set [4] (setting [21]), -129.548%; in data set [4] (synthesized peptide 62.5 μg/mL) it was -134.776%; in [4] (synthesized peptide 125 μg/mL), -156.474%; in data set [4] (synthesized peptide 250 μg/mL), -160.396%; in data set [4] (synthesized peptide 500 μg/mL) it was -188.605%.
